What was measured:
[1] = Cytotoxicity against human THP-1 cells assessed as reduction in cell viability incubated for 72 hrs by alamarblue staining based analysis; format: toxicity
[2] = Selectivity index, ratio of CC50 for cytotoxicity against human THP-1 cells assessed as reduction in cell viability to IC50 for antileishmanial activity against […] stage of Leishmania braziliensis MHOM/BR/75/M2904 infected in human THP-1 cells assessed as parasite growth inhibition; format: toxicity, cell-based; conditions: read-out: Ratio CC50/IC50
[3] = system: Leishmania infantum; experiment: Antileishmanial activity against […] stage of Leishmania infantum MHOM/BR/1974/PP75 infected in human THP-1 cells assessed as parasite growth inhibition incubated for 72 hrs by microplate reader analysis; format: functional, organism-based; conditions: MHOM/BR/1974/PP75, THP-1, 72 h
[4] = system: Leishmania braziliensis; experiment: Antileishmanial activity against […] stage of Leishmania braziliensis MHOM/BR/75/M2904 infected in human THP-1 cells assessed as parasite growth inhibition incubated for 72 hrs by microplate reader analysis; format: functional, organism-based; conditions: MHOM/BR/75/M2904, THP-1, 72 h
[5] = Selectivity index, ratio of CC50 for cytotoxicity against human THP-1 cells assessed as reduction in cell viability to IC50 for antileishmanial activity against […] stage of Leishmania infantum MHOM/BR/1974/PP75 infected in human THP-1 cells assessed as parasite growth inhibition; format: toxicity, cell-based; conditions: read-out: Ratio CC50/IC50
[6] = system: Trypanosoma cruzi; experiment: Antitrypanosomal activity against Trypanosoma cruzi Tulahuen infected in mouse L929 cells assessed as parasite growth inhibition incubated for 96 hrs; format: functional, organism-based; conditions: L929, 96 h
[7] = Cytotoxicity against human HepG2 cells assessed as reduction in cell viability incubated for 4 days by celltiter-glo assay; format: toxicity, cell-based; conditions: time 4 day
[8] = system: Leishmania donovani; experiment: Inhibition of Leishmania donovani at 10 uM GSK-3 by kinase glo assay relative to control
[9] = system: Leishmania donovani; experiment: Antileishmanial activity against amastigote form of Leishmania donovani infected in HepG2 cells assessed as inhibition of parasite growth incubated for 72 hrs by Alamar blue staining based assay; format: functional, organism-based; conditions: HepG2, 72 h

| Compound | CC50 at 72 h [1] [µM] | selectivity ratio [2] | IC50 [3] [µM] | IC50 [4] [µM] | selectivity ratio [5] | IC50 [6] [µM] | CC50 at 96 h [7] [µM] | inhibition [8] [%] | IC50 [9] [µM] |
| --- | --- | --- | --- | --- | --- | --- | --- | --- | --- |
| Nc1ccc(C(=O)N2CCN(c3cnccn3)CC2)cn1 | 2670 | 224 | 5.1 | 11.9 | 524 | – | – | – | – |
| COc1cc(F)ccc1C(=O)N1CCN(c2cnccn2)CC1 | 1360 | 104 | 34.3 | 13.1 | 40 | > 175 | – | – | – |
| O=C(c1ccc(O)cn1)N1CCN(c2cnccn2)CC1 | > 3500 | > 37 | 128 | 94 | > 27 | – | – | – | – |
| O=C(c1cccc(O)c1O)N1CCN(c2cnccn2)CC1 | > 3330 | > 16600 | 2.8 | 0.2 | > 1190 | – | – | – | – |
| O=C(c1ccc(NC2CCCC2)nc1)N1CCN(c2cnccn2)CC1 | 763 | 2 | 280 | 337 | 3 | – | – | – | – |
| COc1ccc(C(=O)N2CCN(c3cnccn3)CC2)c(OC)c1 | 482 | 16 | 26.4 | 30.6 | 18 | – | – | – | – |
| O=C(c1cccc(C(F)(F)F)n1)N1CCN(c2cnccn2)CC1 | 1700 | 0.5 | 7430 | 3540 | 0.2 | > 175 | – | – | – |
| O=C(c1ccccn1)N1CCN(c2cnccn2)CC1 | 1130 | 32 | 64.8 | 34.9 | 18 | – | – | – | – |
| O=S(=O)(c1ccc(O)cc1)N1CCN(c2cnccn2)CC1 | 2510 | 22 | 157 | 113 | 16 | – | – | – | – |
| O=C(c1ccc(O)cc1O)N1CCN(c2cnccn2)CC1 | 443 | 23 | 21.9 | 19.1 | 20 | – | – | – | – |
| COc1ccc(S(=O)(=O)N2CCN(c3cnccn3)CC2)cc1 | > 2990 | > 32 | 122 | 94.1 | > 24 | – | – | – | – |
| CC(C)(C)OC(=O)N[C@@H](Cc1ccc(O)cc1)C(=O)N1CCN(c2cnccn2)CC1 | 1010 | 108 | 2.9 | 9.4 | 349 | – | – | – | – |
| COc1ccc(C(=O)N2CCN(c3cnccn3)CC2)cn1 | 1430 | 82 | 6.2 | 17.5 | 231 | – | – | – | – |
| O=C(c1ccc([N+](=O)[O-])cc1)N1CCN(c2cnccn2)CC1 | 2810 | 17 | 221 | 161 | 13 | > 175 | – | – | – |
| O=C(c1ccc(C(F)(F)F)cc1)N1CCN(c2cnccn2)CC1 | 421 | 8 | 84.5 | 55.7 | 5 | > 175 | – | – | – |
| COc1cccc(C(=O)N2CCN(c3cnccn3)CC2)c1OC | 2000 | 24 | 112 | 82.1 | 18 | – | – | – | – |
| C[C@@H]1[C@H](O)[C@@H](C)/C=C/C=C/C=C/C=C/C=C/C=C/C=C/[C@H](O[C@@H]2O[C@H](C)[C@@H](O)[C@H](N)[C@@H]2O)C[C@@H]2O[C@](O)(C[C@@H](O)C[C@@H](O)[C@H](O)CC[C@@H](O)C[C@@H](O)CC(=O)O[C@H]1C)C[C@H](O)[C@H]2C(=O)O [AMPHOTERICIN B] | 364 | 2800 | 0.25 | 0.13 | 1460 | – | – | – | – |
| O=C(c1ccc(O)c(Cl)c1)N1CCN(c2cnccn2)CC1 | 542 | 46 | 11.9 | 11.7 | 46 | > 175 | > 100 | 1.65 | 0.31 |
| O=C(c1cccc(O)c1)N1CCN(c2cnccn2)CC1 | 2200 | 156 | 25.3 | 14.1 | 87 | > 175 | – | – | – |
| COc1ccc(Cl)cc1C(=O)N1CCN(c2cnccn2)CC1 | 1010 | 130 | 27.5 | 7.8 | – | > 175 | – | – | – |
| N#Cc1ccc(C(=O)N2CCN(c3cnccn3)CC2)cc1 | 1290 | 57 | 15.9 | 22.7 | 81 | – | – | – | – |

Source: ChEMBL document CHEMBL5370527, “Hit-to-lead optimization of a pyrazinylpiperazine series against Leishmania infantum and Leishmania braziliensis” (Eur J Med Chem, 2023)
